Assay results from patent US7423172B2 (Laboratorios Salvat, S.A., priority 2004, dated 2008).
pKi: −log10 of the molar value.

Columns and labels:
GST-hPPARγ2 = molecular target: T1, GST-hPPARγ2 (Homo sapiens, UniProt P37231); test: PPARγ2 binding assay ([3H]BRL-49853 displacement); conditions: GST-hPPARγ2, [3H]BRL-49853 100 nM, 3 h at 4° C.; read-out: Affinity PPARγ
T1 construct: the complete cDNA of the human PPAR was cloned into pGEX4T2; made in house; host or cells: Escherichia coli BL21 (DE3)
T1 sequence (P37231 1-505): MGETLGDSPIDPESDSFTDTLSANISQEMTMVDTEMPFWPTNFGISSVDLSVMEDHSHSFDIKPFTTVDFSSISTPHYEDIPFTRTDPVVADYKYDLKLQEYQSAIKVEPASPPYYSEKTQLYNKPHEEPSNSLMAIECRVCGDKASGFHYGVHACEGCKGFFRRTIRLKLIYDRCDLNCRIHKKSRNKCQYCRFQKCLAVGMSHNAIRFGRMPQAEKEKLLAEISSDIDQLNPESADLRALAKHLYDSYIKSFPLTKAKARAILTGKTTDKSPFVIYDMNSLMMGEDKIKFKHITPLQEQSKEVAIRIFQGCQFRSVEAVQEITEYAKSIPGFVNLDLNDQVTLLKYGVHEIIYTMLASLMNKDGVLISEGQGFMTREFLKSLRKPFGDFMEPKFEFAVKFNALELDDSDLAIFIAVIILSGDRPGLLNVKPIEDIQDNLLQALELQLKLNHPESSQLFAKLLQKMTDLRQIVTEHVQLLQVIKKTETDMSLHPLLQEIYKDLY
Procedure: The cDNA encoding for the open reading frame of the hPPARγ2 was amplified by PCR (polymerase chain reaction) and inserted in the plasmid pGEX-4T-2. This construction (pGEX-hPPARγ) was introduced into E. coli where it was overexpressed and semipurified as a fusion protein with glutathione S-transferase (GST) (Elbrecht et al., J. Biol. Chem. 1999, 274, 7913-7922). The binding of the compounds to the GST-hPPARγ2 s was determined by modifications in the method described by Lehmann et al. (J. Biol. Chem. 1995, 270, 12953-12957). The receptors (2.5 μg) were incubated in 96-well plates in the presence or in the absence of the products with [^3H]BRL-49853 (100 nM) for 3 h at 4° C., in a final volume of 200 μL of buffer Tris-HCl 10 mM pH:8.0, containing KCl 50 mM and DTT 10 mM. Non-specific binding was determined in the presence of BRL49853 100 μM. The reaction mixture was transferred to a Multiscreen Durapore (Millipore) microplate containing glutathione-Sepharose 4B in every well. The reaction mixture was left to incubate with the resin during 10 min, and then centrifuged at 735 g during 2 min. To dissociate the receptor bound to the resin, reduced glutathione 10 mM is added and incubated during 10 min. The receptor was eluted by centrifugation. Then, scintillation liquid was added to the elution and the contained radioactivity was quantified by liquid scintillation spectroscopy (Microbeta Wallac, Perkin Elmer).
The human PPAR cDNA was amplified through RT-PCR. For hPPARγ2, RNA was obtained from human white adipose tissue. Each amplified fragment was cloned into pBluescript (Stratagene®) and sequenced. One clone for each construction was selected and used as template for further subcloning and PCR amplifications.
GST-Fused Protein Construction
To generate this chimeric protein, the complete cDNA of the human PPAR was cloned into pGEX4T2 (Amersham Biosciences). The fragment was obtained from the pBluescript-cDNAs clones digested with endonucleases. To assess the plasmid identity and to ensure the in-phase cloning of the proteins, pGEX construction was sequenced. GST-hPPARγ2 fusion protein was generated in Escherichia coli (BL21 strain DE3). Cells were cultured in LB medium to a density of A600=1.6 odu, and induced for overexpression by addition of isopropyl-1-thio-β-D-galactopyranoside (IPTG)-induced cultures to a final concentration of 0.5 mM. The IPTG-induced cultures were grown at room temperature o/n, before cells were harvested by centrifugation at 5000 g for 15 min. After sonication, the GST-fusion protein was purified from the cell pellet using glutathione-Sepharose beads, following the procedure recommended by the manufacturer (Amersham Pharmacia Biotech). Excess of gluthatione was removed o/n by dyalisis at 4° C. Receptor purity was visualized by SDS-PAGE and protein content was determined by Bradford method. Receptor aliquots were stored at −80° C. until use.

[1] = molecular target: T2, GAL4 DNA binding domain fused to the PPARγ LBD (Homo sapiens, UniProt P37231); test: LBD-hPPARs transactivation assay (GAL4-luciferase reporter in COS-7 cells); format: cell-based; conditions: 48 h
T2 construct: expressed in transfected cells; host or cells: COS-7
T2 sequence (P37231 238-503 limits assumed): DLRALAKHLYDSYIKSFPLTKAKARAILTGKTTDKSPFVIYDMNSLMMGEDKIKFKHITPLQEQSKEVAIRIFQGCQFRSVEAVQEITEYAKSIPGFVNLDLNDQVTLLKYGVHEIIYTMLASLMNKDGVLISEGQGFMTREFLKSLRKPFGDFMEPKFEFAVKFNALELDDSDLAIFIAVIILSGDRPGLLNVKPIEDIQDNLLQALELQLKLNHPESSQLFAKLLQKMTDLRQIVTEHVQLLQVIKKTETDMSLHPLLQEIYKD
Excerpt: LBD-hPPARs Transactivation Assay
COS-7 cells were cultivated in 24-well plates and transfected with the pFACMV plasmids that encode the chimeric proteins containing the GAL4 DNA binding domain fused to the PPARγ LBD. The reporter plasmid for the foregoing constructions was pFR-Luc, which contains five repetitions of the GAL4-response element in front of a promoter that controls the transcription of the luciferase gene. Lipofectamine was used as a transfection agent. The plasmids of the chimeric receptors and the reporter gene were inserted in the cells by transitory transfection in COS-7 cells in culture.

## CCC(=O)N(CCOc1ccc(C[C@H](Nc2ccccc2C(=O)c2ccccc2)C(=O)O)cc1)c1ccc(Cl)cc1 [I_121]
GST-hPPARγ2
  pKi: 5.82 to 6.30
[1]
  Functional activity PPARγ: ANTAGONIST

## C=CC(=O)N(CCCOc1ccc(C[C@H](Nc2ccccc2C(=O)c2ccccc2)C(=O)O)cc1)c1ccc(Cl)cc1 [I_128, (S)-3-(4-{3-[Acryloyl-(4-chlorophenyl)-amino]propoxy}phenyl)-2-(2-benzoylphenylamino)propionic acid]
GST-hPPARγ2
  pKi: 5.82 to 6.30

## Cc1ccc(N(CCOc2ccc(C[C@H](Nc3ccccc3C(=O)c3ccccc3)C(=O)O)cc2)C(=O)C(C)C)cc1 [I_149, (S)-2-(2-Benzoylphenylamino)-3-{4-[2-(isobutyryl-p-tolylamino)ethoxy]-phenyl}propionic acid]
GST-hPPARγ2
  pKi: < 5.82

## O=C(c1ccccc1)c1ccccc1N[C@@H](Cc1ccc(OCCCN(Cc2ccccc2)C(=O)C#Cc2ccccc2)cc1)C(=O)O [I_178, (S)-2-(2-Benzoylphenylamino)-3-(4-{3-[benzyl-(3-phenylpropynoyl)amino]-propoxy}phenyl)propionic acid]
GST-hPPARγ2
  pKi: > 6.30

## O=C(c1ccccc1)c1ccccc1N[C@@H](Cc1ccc(OCCCN(Cc2ccccc2)C(=O)Cc2cccnc2)cc1)C(=O)O [I_198, (S)-2-(2-Benzoylphenylamino)-3-(4-{3-[benzyl-(2-pyridin-3-ylacetyl)-amino]propoxy}phenyl)propionic acid]
GST-hPPARγ2
  pKi: 5.82 to 6.30
[1]
  Functional activity PPARγ: PARTIAL AGONIST

## O=C(c1ccccc1)c1ccccc1N[C@@H](Cc1ccc(OCCCN(CC2CC2)C(=O)Cc2ccccc2)cc1)C(=O)O [I_262, (S)-2-(2-Benzoylphenylamino)-3-{4-[3-(cyclopropylmethylphenylacetylamino)propoxy]phenyl}propionic acid]
GST-hPPARγ2
  pKi: > 6.30
[1]
  Functional activity PPARγ: AGONIST

## O=C(c1ccccc1)c1ccccc1N[C@@H](Cc1ccc(OCCN(CC2CC2)C(=O)C=Cc2cccs2)cc1)C(=O)O [I_265, (S)-2-(2-Benzoylphenylamino)-3-(4-{2-[cyclopropylmethyl-(3-thiophen-2-ylacryloyl)amino]ethoxy}phenyl)-propionic acid]
GST-hPPARγ2
  pKi: > 6.30
[1]
  Functional activity PPARγ: AGONIST

## O=C(c1ccccc1)c1ccccc1N[C@@H](Cc1ccc(OCCCN(CC2CC2)C(=O)C2CCCC2)cc1)C(=O)O [I_280, (S)-2-(2-Benzoylphenylamino)-3-{4-[3-(cyclopentanecarbonylcyclopropylmethylamino)propoxy]phenyl}propionic acid]
GST-hPPARγ2
  pKi: > 6.30

## O=C(c1ccccc1)c1ccccc1N[C@@H](Cc1ccc(OCCN(C(=O)c2cc3ccccc3cn2)c2ccccc2)cc1)C(=O)O [I_303, (S)-2-(2-Benzoylphenylamino)-3-(4-{2-[(isoquinoline-3-carbonyl)-phenylamino]ethoxy}phenyl)propionic acid]
GST-hPPARγ2
  pKi: > 6.30

## CC(C)(C)N(CCOc1ccc(C[C@H](Nc2ccccc2C(=O)c2ccccc2)C(=O)O)cc1)C(=O)C1CCC1 [I_375, (S)-2-(2-Benzoylphenylamino)-3-{4-[2-(tert-butylcyclobutanecarbonylamino)-ethoxy]phenyl}propionic acid]
GST-hPPARγ2
  pKi: > 6.30
[1]
  Functional activity PPARγ: PARTIAL AGONIST

## O=C(c1ccccc1)c1ccccc1N[C@@H](Cc1ccc(OCCN(Cc2ccccc2F)c2ccccc2Cl)cc1)C(=O)O [I_379, (S)-2-(2-Benzoylphenylamino)-3-(4-{2-[(2-chlorophenyl)-(2-fluorobenzyl)-amino]ethoxy}phenyl)propionic acid]
GST-hPPARγ2
  pKi: 5.82 to 6.30

## COc1cccc(CN(CCCOc2ccc(C[C@H](Nc3ccccc3C(=O)c3ccccc3)C(=O)O)cc2)c2ccccc2)c1 [I_391, (S)-2-(2-Benzoylphenylamino)-3-(4-{3-[(3-methoxybenzyl)phenylamino]-propoxy}phenyl)propionic acid]
GST-hPPARγ2
  pKi: 5.82 to 6.30

## Cc1cccc(N(CCCOc2ccc(C[C@H](Nc3ccccc3C(=O)c3ccccc3)C(=O)O)cc2)CC(C)C)c1 [I_410, (S)-2-(2-Benzoylphenylamino)-3-(4-{3-[isobutyl-m-tolylamino]propoxy}-phenyl)propionic acid]
GST-hPPARγ2
  pKi: > 6.30
[1]
  Functional activity PPARγ: ANTAGONIST

## Cc1ccccc1N(CCOc1ccc(C[C@H](Nc2ccccc2C(=O)c2ccccc2)C(=O)O)cc1)CC1CCC1 [I_412, (S)-2-(2-Benzoylphenylamino)-3-{4-[2-(cyclobutylmethyl-o-tolylamino)-ethoxy]phenyl}propionic acid]
GST-hPPARγ2
  pKi: > 6.30

## O=C(c1ccccc1)c1ccccc1N[C@@H](Cc1ccc(OCCCN(Cc2ccccc2)CC2CC2)cc1)C(=O)O [I_418, (S)-2-(2-Benzoylphenylamino)-3-{4-[3-(benzylcyclopropylmethylamino)-propoxy]phenyl}propionic acid]
GST-hPPARγ2
  pKi: 5.82 to 6.30
[1]
  Functional activity PPARγ: PARTIAL AGONIST

## CC(=O)N(CCOc1ccc(C[C@H](Nc2ccccc2C(=O)c2ccccc2)C(=O)O)cc1)c1ccc2ccccc2c1 [I_438, (S)-3-{4-[2-(Acetylnaphthalen-2-ylamino)ethoxy]phenyl}-2-(2-benzoylphenylamino)propionic acid]
GST-hPPARγ2
  pKi: 5.82 to 6.30

## C/C=C/C(=O)N(CCOc1ccc(C[C@H](Nc2ccccc2C(=O)c2ccccc2)C(=O)O)cc1)c1cccc(SC)c1 [I_440, (S)-2-(2-Benzoylphenylamino)-3-(4-{2-[but-2-(E)-enoyl-(3-methylsulfanylphenyl)amino]ethoxy}-phenyl)propionic acid]
GST-hPPARγ2
  pKi: 5.82 to 6.30

## O=C(c1ccccc1)c1ccccc1N[C@@H](Cc1ccc(OCCN(Cc2cccs2)c2ccccc2)cc1)C(=O)O [I_467, (S)-2-(2-Benzoylphenylamino)-3-{4-[2-(phenylthiophen-2-ylmethylamino)-ethoxy]phenyl}propionic acid]
GST-hPPARγ2
  pKi: > 6.30

## COCCC(=O)N(CCOc1ccc(C[C@H](Nc2ccccc2C(=O)c2ccccc2)C(=O)O)cc1)Cc1ccccc1 [I_469, (S)-2-(2-Benzoylphenylamino)-3-(4-{2-[benzyl-(3-methoxypropionyl)-amino]ethoxy}phenyl)propionic acid]
GST-hPPARγ2
  pKi: 5.82 to 6.30
